Where two headings read alike, the source gives them in different places.
Experiments:
TPO receptor = target: T1, TPO receptor (Homo sapiens, UniProt P40238); assay: Luciferase assay in TPO-responsive BaF3 cell line; format: cell-based, murine; settings: at a concentration of 3 uM
T1 construct: expressed in transfected cells; host or cells: murine BaF3 cells (TPO-responsive line)
T1 sequence (P40238 26-635): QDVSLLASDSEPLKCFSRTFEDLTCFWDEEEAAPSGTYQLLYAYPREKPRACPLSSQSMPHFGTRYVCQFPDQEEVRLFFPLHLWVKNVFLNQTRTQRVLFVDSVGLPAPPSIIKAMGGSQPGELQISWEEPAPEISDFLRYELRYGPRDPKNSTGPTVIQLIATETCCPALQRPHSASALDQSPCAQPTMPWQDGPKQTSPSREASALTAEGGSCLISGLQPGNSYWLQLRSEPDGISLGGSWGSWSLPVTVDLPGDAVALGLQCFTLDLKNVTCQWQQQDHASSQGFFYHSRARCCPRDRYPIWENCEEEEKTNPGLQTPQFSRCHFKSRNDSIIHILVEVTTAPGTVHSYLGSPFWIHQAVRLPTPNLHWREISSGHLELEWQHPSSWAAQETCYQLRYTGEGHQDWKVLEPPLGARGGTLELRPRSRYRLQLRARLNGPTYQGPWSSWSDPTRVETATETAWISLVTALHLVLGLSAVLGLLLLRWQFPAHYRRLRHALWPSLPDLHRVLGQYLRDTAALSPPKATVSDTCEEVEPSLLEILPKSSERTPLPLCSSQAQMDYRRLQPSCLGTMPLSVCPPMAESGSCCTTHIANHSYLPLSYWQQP
Experimental: Compounds of the present invention were tested for potency as mimetics of the TPO receptor in a Luciferase assay such as described in Lamb, et al., Nucleic Acids Research 23: 3283–3289 (1995) and Seidel, et al., Proc. Natl. Acad. Sci., USA 92: 3041–3045 (1995) by substituting a TPO-responsive BaF3 cell line (Vigon et al. Proc. Natl. Acad. Sci. USA 1992, 89, 5640–5644) for the HepG2 cells utilized therein. The murine BaF3 cells express TPO receptors and closely match the pattern of STAT (signal transducers and activators of transcription) activation observed in primary murine and human bone marrow cells in response to TPO.

[1] = tested on: BAF-3/TPO-responsive human cell lines; assay: proliferation of BAF-3/TPO-responsive human cell lines (Table 1); format: cell-based

Row | activation, % of control (control is the maximal response to TPO) (TPO receptor) | Compound | Efficacy/%TPOmax [1] | EC50 ([1]; BaF3) | EC50 [1]
1 | about 20 % of control | Cc1ccc(-c2cccc(C=NNC(=S)Nc3cccc(C(=O)O)c3)c2O)cc1C [Example 15.8, 4-(3-carboxyphenyl)-1-[3-(3,4-dimethylphenyl)-2-hydroxybenzylidene]-3-thiosemicarbazide] | 90 %TPOmax | 30 nM | 
2 |  | O=C(O)c1ccc(NC(=S)NN=Cc2cccc(-c3cccc(C(F)(F)F)c3)c2O)cc1 [Example 15.9, 4-(4-carboxyphenyl)-1-[2-hydroxy-3-(3-trifluoromethylphenyl)benzylidene]-3-thiosemicarbazide] | 100 %TPOmax | 20 nM | 
3 |  | O=C(O)c1cccc(NC(=S)NN=Cc2cccc(-c3cccc(C(F)(F)F)c3)c2O)c1 [Example 15.10, 4-(3-carboxyphenyl)-1-[2-hydroxy-3-(3-trifluoromethylphenyl)benzylidene]-3-3-thiosemicarbazide] | 100 %TPOmax |  | 50 nM
4 |  | O=C(O)c1cccc(NC(=S)NN=Cc2cccc(-c3ccc(Cl)cc3)c2O)c1 [Example 15.12, 4-(3-carboxyphenyl)-1-[3-(4-chlorophenyl)-2-hydroxybenzylidene]-3-thiosemicarbazide] | 85 %TPOmax | 60 nM | 
5 |  | Cc1ccc(-n2nc(C)c(C=NNC(=S)Nc3ccc(C(=O)O)cc3)c2O)cc1 [Example 15.29, 4-(4-carboxyphenyl)-1-[{5-hydroxy-3-methyl-1-(4-methylphenyl)pyrazol-4-yl}methylene]-3-thiosemicarbazide] | 100 %TPOmax | 30 nM | 
6 |  | Cc1ccc(-n2nc(C)c(C=NNC(=S)Nc3cccc(C(=O)O)c3)c2O)cc1 [Example 15.30, 4-(3-carboxyphenyl)-1-[{5-hydroxy-3-methyl-1-(4-methylphenyl)pyrazol-4-yl}methylene]-3-thiosemicarbazide] | 100 %TPOmax | 30 nM | 
7 |  | Cc1nn(-c2cccc(Cl)c2)c(O)c1C=NNC(=S)Nc1ccc(C(=O)O)cc1 [Example 15.31, 4-(4-carboxyphenyl)-1-[{1-(3-chlorophenyl)-5-hydroxy-3-methylpyrazol-4-yl}methylene]-3-thiosemicarbazide] | 100 %TPOmax | 30 nM | 
